Measurements: patent US7005124B2, “Dendritic-antineoplastic drug delivery system” (priority 1997, dated 2006)
Read-outs that look alike come from different tables or passages of the source.

Key:
B16F10 [1] = test: Activity against B16F10 I.P., I.P. injection; type: in vivo, C57 mice; settings: dose 5 Pt-equiv mg/Kg, day 1
Protocol: (§4) Alternatively drug was administered I.V. to mice bearing S.C. implanted B16F10 when the tumor reached palpable size (50–100 mm^2). Animal weight, tumor size and animal survival were monitored (UK guidelines for animal experiments involving neoplasia were followed.)
(§5) Li 210 or B16F10 cells were injected at a cell density into a mouse (DBA2 or C57 respectively, 25 g) at a cell density of 1×10^5 (0.9% saline solution) into the intraperitoneal (I.P. 100 μl) cavity. […] The mouse body weight and general toxicity was also monitored according to UK guidelines in the use of animals used in neoplasia studies. At the end point the gross morphology of the organs was noted.

L1210 = L1210 ip
Protocol: as §4, §5

Cor L23 = test: Cell cytotoxicity of dendrimer-platinate, MTT; type: cell-based, human; settings: Pt-equiv.
Protocol: (§1) All cellular growth and cytotoxic incubations were carried out in a cell incubator at 37° C. and 5% CO2 atmosphere.
(§2) Cell density was assessed using an improved neurenbrow hemocytometer (Sigma). The cells were washed with PBS twice and fresh RPMI media (supplemented with FCS) added, the cells were then seeded in a microtitre plate. The cells were left for 24 hours to recover and re-adhere. If cells were in a suspension they were spun at 1000×g and resuspended in fresh media.
(§3) Some cells were left in media only to act as cellular controls. The cells were left in the incubator for 72 hours, and checked occasionally for yeast or bacterial contamination. Five hours prior to the incubation time end point, at 67 hours, 20 μl of MTT was added and the cells left for the final 5 hours. Then cellular media was removed and 100 μl of optical grade DMSO (Sigma) was added and the MTT crystals dissolved.

CCRF-CEM = test: Cell cytotoxicity of dendrimer-platinate, MTT; type: cell-based, human; settings: Pt-equiv.
Protocol: as §1, §2, §3

B16F10 [2] = test: Cell cytotoxicity of dendrimer-platinate, MTT; type: cell-based, murine; settings: Pt-equiv.
Protocol: as §1, §2, §3

Work on `N.N.[Cl][Pt][Cl]` [Cisplatin, cis-diamminedichloroplatinum] yielded a T/C (B16F10 [1]) of 89, a T/C (L1210; dose 2 Pt-equiv mg/Kg I.P. days 1, 2, 3) of 171 and a T/C (L1210; dose 3 Pt-equiv mg/Kg I.P. days 1, 2, 3) of 64. The “IC50 Values” (Cor L23) was 1 µg/mL, the “IC50 Values” (CCRF-CEM) was 5 µg/mL and the “IC50 Values” (B16F10 [2]) was 9 µg/mL.
